Laboratory results reported in patent US8906868B2, “Aminoglycoside derivatives” (Rempex Pharmaceuticals, Inc., priority 2010, dated 2014).
Values after ≈ are worked out from the molar mass of the structure shown. Where two headings read alike, the source gives them in different places.

Key:
[1] = system: Pseudomonas aeruginosa (ATCC 27853); assay: MIC, broth microdilution; conditions: Pseudomonas aeruginosa
EC1002 aph(3′)-IV = assay: organism not typed; type: cell-based; conditions: read-out: Compound MIC on Bacterial Strains: EC1002 aph(3′)-IV
Summary of the method: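 CLSI broth microdilution; CaMHB; 2-fold dilutions; 5×10^5 CFU/ml; 18 h, 35° C; OD600 turbidity plus visual check for MIC.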

[2] = system: 143 clinical isolates of various species of Enterobacteriacea; assay: MIC against clinical isolates of Enterobacteriacea; type: cell-based; conditions: for MIC50: MIC of 50% population; for MIC50 / MIC90: 143 clinical isolates of Enterobacteriacea; for MIC90: MIC of 90% population; for share of strains of Enterobacteriacae in which the compound was more potent than the other (44 vs. 45): by ratio of MICs
Method: (§1) To compare microbiological activity of the test compounds, minimum inhibitory concentrations (MIC.s) were determined. Antibiotic MICs were obtained using the broth microdilution method according to Clinical and Laboratory Standards Institute (CLSI) approved guidelines (Methods for dilution antimicrobial susceptibility tests for bacteria that grow aerobically; approved standard—7th ed. CLSI document M7-A7. Clinical and Laboratory Standards Institute, Wayne, Pa., incorporated herein by reference in its entirety). Antibiotics were dissolved as specified by CLSI (Performance standards for antimicrobial susceptibility testing; Seventeenth informational supplement. CLSI document M100-S17. Clinical and Laboratory Standards Institute, Wayne, Pa., incorporated herein by reference in its entirety), and were serially diluted 2-fold in cation adjusted Mueller Hinton Broth (CaMHB) at 2× concentration. Bacterial inoculums were prepared in CaMHB by suspension of a colony from an agar plate that was prepared the previous day to obtain a final concentration of 5×10^5CFU/ml. The plates were incubated for 18 hours at 35° C. […] MIC.s were determined by reading the turbidity of plate wells using a SpectraMax Plus384 plate reader (Molecular Devices, Sunnyvale, Calif., USA) at 600 nm and were confirmed by visual inspection.
Table 9 summarizes results of testing 44 and 45 against 143 clinical isolates of various species of Enterobacteriacea.

EC1001 acc(6′)-Ib = assay: microbe, parasite or virus in culture; type: cell-based, Escherichia coli; conditions: Escherichia coli
Summary of the method: (§2)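 CLSI broth microdilution in CaMHB; 2-fold serial dilutions; 5×10^5 CFU/ml final inoculum; 18 h, 35° C; OD600 turbidity plus visual check.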

[3] = system: ECM6007 aac(6′) + aph(2″); assay: microbe, parasite or virus in culture; type: cell-based, Escherichia coli; conditions: Escherichia coli
Summary of the method: as §2

[4] = system: Staphylococcus aureus (ATCC 29213); assay: MIC, broth microdilution; conditions: Staphylococcus aureus
mice = assay: Acute toxicity in mice (minimal lethal dose); type: in vivo; conditions: IV tail vein, observed 24 hours, lowest dose lethal for at least one mouse
Method: The acute toxicity of 44 was compared to that of 45 in mice. Ascending doses of each compound were administered to mice (n=3) IV through the tail vein. […] Acute toxicity was reported as the minimal lethal dose, or MLD, defined as the lowest dose of a compound that is lethal for at least one mouse.

[5] = system: Acinetobacter baumannii (ATCC 19606); assay: MIC, broth microdilution; conditions: Acinetobacter baumannii
PAM3073 aac(6′)-I = assay: microbe, parasite or virus in culture; type: cell-based, Pseudomonas aeruginosa; conditions: Pseudomonas aeruginosa
Summary of the method: as §2

PAM3072 aac(6′)-II = assay: microbe, parasite or virus in culture; type: cell-based, Pseudomonas aeruginosa; conditions: Pseudomonas aeruginosa
Summary of the method: as §2

ACM1005 ATCC 19004 = assay: MIC, broth microdilution; type: cell-based, Acinetobacter baumannii; conditions: Acinetobacter baumannii, ATCC19004
Summary of the method: as §2

[6] = system: Enterobacter aerogenes EAM1000 ATCC 13048; assay: MIC, representative strains; type: cell-based; conditions: Klebsiella aerogenes, ATCC13048, read-out: MIC Enterobacter aerogenes EAM1000 ATCC 13048
Method: as §1

[7] = system: Pseudomonas aeruginosa PAM2900 PAM2859/pXY; assay: MIC, representative strains; type: cell-based; conditions: read-out: MIC Pseudomonas aeruginosa PAM2900 PAM2859/pXY
Method: as §1

[8] = system: Citrobacter freundii CFM1000 ATCC 8090; assay: MIC, representative strains; type: cell-based; conditions: ATCC8090, read-out: MIC Citrobacter freundii CFM1000 ATCC 8090
Method: as §1

[9] = system: Pseudomonas aeruginosa PAM2859 multiple pumps deleted; assay: MIC, representative strains; type: cell-based; conditions: read-out: MIC Pseudomonas aeruginosa PAM2859 multiple pumps deleted
Method: as §1

[10] = system: Staphylococcus aureus SAM1001 ATCC 25923; assay: MIC, representative strains; type: cell-based; conditions: ATCC25923, read-out: MIC Staphylococcus aureus SAM1001 ATCC 25923
Method: as §1

ECM6003 rmtB = assay: microbe, parasite or virus in culture; type: cell-based, Escherichia coli; conditions: Escherichia coli
Summary of the method: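 Broth microdilution per CLSI M7-A7 in cation-adjusted Mueller Hinton broth with 2-fold serial dilutions and 5×10^5 CFU/ml inoculum. Incubated 18 hours at 35 °C; MIC read by turbidity at 600 nm and confirmed visually.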

[11] = system: Klebsiella pneumonia (ATCC 43816); assay: MIC, broth microdilution; conditions: Klebsiella pneumoniae
[12] = ATCC27853, read-out: Compound MIC on Bacterial Strains: P. aeruginosa ATCC 27853
[13] = ATCC27853, read-out: Compound MIC on Bacterial Strains: Pseudomonas aeruginosa PAM3034 ATCC 27853
[14] = ATCC27853, read-out: MIC Pseudomonas aeruginosa PAM3034 ATCC 27853
[15] = Table 4, read-out: Compound MIC on Bacterial Strains: Escherichia coli EC1001 acc(6′)-Ib
[16] = Table 8, read-out: MIC Escherichia coli EC1001 aac(6′)-Ib
[17] = 18 h, Table 4, read-out: Compound MIC on Bacterial Strains: Escherichia coli ECM6007 aac(6′) + aph(2″)
[18] = Table 8, read-out: MIC Escherichia coli ECM6007 aac(6′) + aph(2″)
[19] = ATCC29213, read-out: Compound MIC on Bacterial Strains: S. aureus ATCC 29213, QC strain, Table 2
[20] = ATCC29213, read-out: Compound MIC on Bacterial Strains: Staphylococcus aureus SAM1000 ATCC 29213, Table 5
[21] = ATCC29213, read-out: MIC Staphylococcus aureus SAM1000 ATCC 29213, Table 7
[22] = ATCC19606, read-out: Compound MIC on Bacterial Strains: A. baumannii ATCC 19606
[23] = ATCC19606, read-out: MIC Acinetobacter baumannii ACM1003 ATCC 19606
[24] = Table 5, read-out: Compound MIC on Bacterial Strains: Pseudomonas aeruginosa PAM3073 aac(6′)-I
[25] = Table 8, read-out: MIC Pseudomonas aeruginosa PAM3073 aac(6′)-I, wt efflux
[26] = Table 5, read-out: Compound MIC on Bacterial Strains: Pseudomonas aeruginosa PAM3072 aac(6′)-II
[27] = Table 8, read-out: MIC Pseudomonas aeruginosa PAM3072 aac(6′)-II or III
[28] = Table 4, read-out: Compound MIC on Bacterial Strains: Acinetobacter baumannii ACM1005 ATCC 19004
[29] = Table 7, read-out: MIC Acinetobacter baumannii ACM1005 ATCC 19004
[30] = Table 3, read-out: Compound MIC on Bacterial Strains: ECM6003 rmtB
[31] = Table 8, read-out: MIC Escherichia coli ECM6003 rmtB
[32] = ATCC43816, read-out: Compound MIC on Bacterial Strains: K. pneumonia ATCC 43816
[33] = ATCC43816, read-out: MIC Klebsiella pneumoniae KPM1001 ATCC 43816

| Structure (SMILES) | MIC [1, 12] | MIC [1, 13] | MIC [1, 14] | MIC (EC1002 aph(3′)-IV) | MIC50 [2] | MIC90 [2] | share of strains of Enterobacteriacae in which the compound was more potent than the other (44 vs. 45) [2] | MIC (EC1001 acc(6′)-Ib; [15]) | MIC (EC1001 acc(6′)-Ib; [16]) | MIC [3, 17] | MIC [3, 18] | MIC [4, 19] | MIC [4, 20] | MIC [4, 21] | minimal lethal dose (MLD) (mice) | MIC [5, 22] | MIC [5, 23] | MIC (PAM3073 aac(6′)-I; [24]) | MIC (PAM3073 aac(6′)-I; [25]) | MIC (PAM3072 aac(6′)-II; [26]) | further results |
| --- | --- | --- | --- | --- | --- | --- | --- | --- | --- | --- | --- | --- | --- | --- | --- | --- | --- | --- | --- | --- | --- |
| CN[C@@H]1C(O)[C@@H](OC2C(O)C(O[C@H]3O[C@H](CNC[C@@H](O)CO)CCC3N)[C@@H](N)C[C@H]2NC(=O)[C@@H](O)CN)OCC1(C)O (stereo partly shown) [Compound 44] | 1 to 8 µg/mL (≈ 1.64 to 13.1 µM) | 1 to 8 µg/mL (≈ 1.64 to 13.1 µM) | 1 to 8 µg/mL (≈ 1.64 to 13.1 µM) | < 1 µg/mL | 0.5 µg/mL | 2 µg/mL | ~75% | < 1 µg/mL | < 1 µg/mL | < 1 µg/mL | < 1 µg/mL | < 1 µg/mL | < 1 µg/mL | < 1 µg/mL | > 125 mg/kg | > 8 µg/mL | > 8 µg/mL | 1 to 8 µg/mL (≈ 1.64 to 13.1 µM) | 1 to 8 µg/mL (≈ 1.64 to 13.1 µM) | > 8 µg/mL | MIC (PAM3072 aac(6′)-II; [27]): > 8 µg/mL; MIC (ACM1005 ATCC 19004; [28]): 1 to 8 µg/mL (≈ 1.64 to 13.1 µM); MIC (ACM1005 ATCC 19004; [29]): 1 to 8 µg/mL (≈ 1.64 to 13.1 µM); MIC [6]: < 1 µg/mL; MIC [7]: > 8 µg/mL; MIC [8]: < 1 µg/mL; MIC [9]: < 1 µg/mL; MIC [10]: < 1 µg/mL; MIC (ECM6003 rmtB; [30]): > 8 µg/mL; MIC (ECM6003 rmtB; [31]): > 8 µg/mL; MIC [11, 32]: < 1 µg/mL; MIC [11, 33]: < 1 µg/mL |
| CN[C@@H]1[C@@H](O)[C@@H](O[C@@H]2[C@@H](O)[C@H](O[C@H]3O[C@H](CNC[C@H](O)CO)CC[C@H]3N)[C@@H](N)C[C@H]2NC(=O)[C@@H](O)CN)OC[C@]1(C)O [Compound 45, (S)-3-amino-N-((1R,2S,3S,4R,5S)-5-amino-4-((2R,3R,6S)-3-amino-6-(((S)-2,3-dihydroxypropylamino)methyl)tetrahydro-2H-pyran-2-yloxy)-2-((2R,3R,4R,5R)-3,5-dihydroxy-5-methyl-4-(methylamino)tetrahydro-2H-pyran-2-yloxy)-3-hydroxycyclohexyl)-2-hydroxypropanamide] | 1 to 8 µg/mL (≈ 1.64 to 13.1 µM) | 1 to 8 µg/mL (≈ 1.64 to 13.1 µM) | 1 to 8 µg/mL (≈ 1.64 to 13.1 µM) | 1 to 8 µg/mL (≈ 1.64 to 13.1 µM) | 1 µg/mL | 2 µg/mL | less than 2% | 1 to 8 µg/mL (≈ 1.64 to 13.1 µM) | 1 to 8 µg/mL (≈ 1.64 to 13.1 µM) | < 1 µg/mL | < 1 µg/mL | 1 to 8 µg/mL (≈ 1.64 to 13.1 µM) | 1 to 8 µg/mL (≈ 1.64 to 13.1 µM) | 1 to 8 µg/mL (≈ 1.64 to 13.1 µM) | 100 mg/kg | > 8 µg/mL | > 8 µg/mL | 1 to 8 µg/mL (≈ 1.64 to 13.1 µM) | 1 to 8 µg/mL (≈ 1.64 to 13.1 µM) | > 8 µg/mL | MIC (PAM3072 aac(6′)-II; [27]): > 8 µg/mL; MIC (ACM1005 ATCC 19004; [28]): 1 to 8 µg/mL (≈ 1.64 to 13.1 µM); MIC (ACM1005 ATCC 19004; [29]): 1 to 8 µg/mL (≈ 1.64 to 13.1 µM); MIC [6]: 1 to 8 µg/mL (≈ 1.64 to 13.1 µM); MIC [7]: > 8 µg/mL; MIC [8]: < 1 µg/mL; MIC [9]: < 1 µg/mL; MIC [10]: < 1 µg/mL; MIC (ECM6003 rmtB; [30]): > 8 µg/mL; MIC (ECM6003 rmtB; [31]): > 8 µg/mL; MIC [11, 32]: < 1 µg/mL; MIC [11, 33]: < 1 µg/mL |
